# Experimental data from patent publication US5998654A, “Retinoic acid receptor antagonist compounds and methods” (Ligand Pharmaceuticals Incorporated, priority 1997, dated 1999).
# pEC50, pKd: −log10 of the molar value.
# Tests used:
# [1] = molecular target: T1, RARγ (Homo sapiens, UniProt P13631); test: RAR binding, RARγ; conditions: Kd from IC50 by Cheng-Prussof equation
# T1 sequence (P13631 1-454): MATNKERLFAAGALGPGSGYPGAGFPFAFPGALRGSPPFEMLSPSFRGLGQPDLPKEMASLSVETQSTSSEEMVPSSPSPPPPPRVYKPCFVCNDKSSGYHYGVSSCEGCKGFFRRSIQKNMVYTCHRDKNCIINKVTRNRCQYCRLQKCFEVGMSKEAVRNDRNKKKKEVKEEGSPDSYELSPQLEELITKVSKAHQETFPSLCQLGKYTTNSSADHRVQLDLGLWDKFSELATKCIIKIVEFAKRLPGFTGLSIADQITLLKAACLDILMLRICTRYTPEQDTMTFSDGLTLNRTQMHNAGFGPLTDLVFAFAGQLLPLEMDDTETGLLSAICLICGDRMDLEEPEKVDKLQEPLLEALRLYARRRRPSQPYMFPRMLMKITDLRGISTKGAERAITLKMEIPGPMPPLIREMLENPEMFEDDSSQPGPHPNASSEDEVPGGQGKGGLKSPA
# Protocol: Non-specific binding was defined as that binding remaining in the presence of 500 nM of the appropriate unlabelled compound. At the end of the incubation period, bound from free ligand were separated. The amount of bound tritiated retinoids was determined by liquid scintillation counting of an aliquot (700 μL) of the supernatant fluid or the hydroxylapatite pellet.
# After correcting for non-specific binding, IC50 values were determined. […] The IC50 value was determined graphically from a log-logit plot of the data. The Kd values were determined by application of the Cheng-Prussof equation to the IC50 values, the labeled ligand concentration and the Kd of the labeled ligand.
# [2] = molecular target: T2, RARα (Homo sapiens, UniProt P10276); test: co-transfection assay, agonist activity on RARα; format: cell-based; design: expressed in transfected cells; host or cells: CV-1 cells (African green monkey kidney); conditions: CV-1 cells; read-out: EC50 agonist potency, RARα
# T2 sequence (P10276 1-462): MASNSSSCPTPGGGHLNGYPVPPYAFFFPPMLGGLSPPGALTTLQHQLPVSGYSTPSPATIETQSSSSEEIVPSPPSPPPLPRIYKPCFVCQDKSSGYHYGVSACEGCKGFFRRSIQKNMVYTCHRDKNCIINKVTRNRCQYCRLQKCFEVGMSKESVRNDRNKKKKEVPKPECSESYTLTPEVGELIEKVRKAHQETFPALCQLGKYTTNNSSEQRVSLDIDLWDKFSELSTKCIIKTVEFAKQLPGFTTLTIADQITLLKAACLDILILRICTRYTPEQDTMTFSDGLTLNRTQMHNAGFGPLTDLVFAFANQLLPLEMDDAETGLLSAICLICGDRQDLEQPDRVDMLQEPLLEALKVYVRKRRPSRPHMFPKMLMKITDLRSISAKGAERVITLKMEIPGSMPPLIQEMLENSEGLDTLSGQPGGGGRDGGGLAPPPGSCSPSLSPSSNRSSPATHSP
# Excerpt: (§1) This assay is described in further detail in U.S. Pat. Nos. 4,981,784 and 5,071,773, the disclosures of which are incorporated herein by reference.
# (§2) In the co-transfection assay, a cloned cDNA for an IR (e.g., human RARα:, RARβ, RXRγ) under the control of a constitutive promoter (e.g., the SV 40 promoter) is introduced by transfection (a procedure to induce cells to take up foreign genes) into a background cell substantially devoid of endogenous IRs. This introduced gene directs the recipient cells to make the IR protein of interest. A second gene is also introduced (co-transfected) into the same cells in conjunction with the IR gene. This second gene, comprising the cDNA for a reporter protein, such as firefly luciferase (LUC), is controlled by an appropriate hormone responsive promoter containing a hormone response element (HRE). This reporter plasmid functions as a reporter for the transcription-modulating activity of the target IR. Thus, the reporter acts as a surrogate for the products (mRNA then protein) normally expressed by a gene under control of the target receptor and its native hormone.
# (§3) The co-transfection assay can detect small molecule agonists or antagonists of target IRs. Exposing the transfected cells to an agonist ligand compound increases reporter activity in the transfected cells. This activity can be conveniently measured, e.g., by increasing luciferase production, which reflects compound-dependent, IR-mediated increases in reporter transcription. To detect antagonists, the co-transfection assay is carried out in the presence of a constant concentration of an agonist to the target IR (e.g., all-trans retinoic acid for RARα) known to induce a defined reporter signal. Increasing concentrations of a suspected antagonist will decrease the reporter signal (e.g., luciferase production). The co-transfection assay is therefore useful to detect both agonists and antagonists of specific IRs. Furthermore, it determines not only whether a compound interacts with a particular IR, but whether this interaction mimics (agonizes) or blocks (antagonizes) the effects of the native regulatory molecules on target gene expression, as well as the specificity and strength of this interaction.
# (§4) CV-1 cells (African green monkey kidney fibroblasts) were cultured in the presence of Dulbecco's Modified Eagle Medium (DMEM) supplemented with 10% charcoal resin-stripped fetal bovine serum then transferred to 96-well microtiter plates one day prior to transfection. […]
# [3] = molecular target: T1, RARγ; test: co-transfection assay, agonist activity on RARγ; format: cell-based; design: expressed in transfected cells; host or cells: CV-1 cells (African green monkey kidney); conditions: CV-1 cells; read-out: EC50 agonist potency, RARγ
# Excerpt: as §1, §2, §3, §4
Structure (SMILES),pKd [1],pEC50 [2],pEC50 [3]
"CCCCOc1c(C(C)(C)C)cc(/C(C)=C/C=C/C(C)=C/C(=O)O)cc1C(C)(C)C [Compound 7, 2E, 4E, 6E-[7-(3,5-Di-t-butyl-4-n-butoxyphenyl)-3-methyl]-octa-2,4,6-trienoic acid]",7.77,< 5.00,< 5.00
"CCCOc1c(C(C)(C)C)cc(/C(C)=C/C=C/C(C)=C/C(=O)O)cc1C(C)(C)C [Compound 8, 2E, 4E, 6E-[7-(3,5-Di-t-butyl-4-n-propoxyphenyl)-3-methyl]-octa-2,4,6-trienoic acid]",8.40,< 5.00,< 5.00
"CCCCCOc1c(C(C)(C)C)cc(/C(C)=C/C=C/C(C)=C/C(=O)O)cc1C(C)(C)C [Compound 9, 2E, 4E, 6E-[7-(3,5-Di-t-butyl-4-n-pentoxyphenyl)-3-methyl]-octa-2,4,6-trienoic acid]",7.85,< 5.00,< 5.00
"C=C(c1ccccc1)c1cc(/C(C)=C/C=C/C(C)=C/C(=O)O)cc(C(C)(C)C)c1 [Compound 17, (2E,4E,6E)-7-[3-t-butyl-5-(1-phenyl-vinyl)-phenyl]-3-methyl-octa-2,4,6-trienoic acid]",7.85,< 5.00,< 5.00
